Biological target: EGFR (human) (UniProt P00533)
Sequence (P00533 whole entry, looked up): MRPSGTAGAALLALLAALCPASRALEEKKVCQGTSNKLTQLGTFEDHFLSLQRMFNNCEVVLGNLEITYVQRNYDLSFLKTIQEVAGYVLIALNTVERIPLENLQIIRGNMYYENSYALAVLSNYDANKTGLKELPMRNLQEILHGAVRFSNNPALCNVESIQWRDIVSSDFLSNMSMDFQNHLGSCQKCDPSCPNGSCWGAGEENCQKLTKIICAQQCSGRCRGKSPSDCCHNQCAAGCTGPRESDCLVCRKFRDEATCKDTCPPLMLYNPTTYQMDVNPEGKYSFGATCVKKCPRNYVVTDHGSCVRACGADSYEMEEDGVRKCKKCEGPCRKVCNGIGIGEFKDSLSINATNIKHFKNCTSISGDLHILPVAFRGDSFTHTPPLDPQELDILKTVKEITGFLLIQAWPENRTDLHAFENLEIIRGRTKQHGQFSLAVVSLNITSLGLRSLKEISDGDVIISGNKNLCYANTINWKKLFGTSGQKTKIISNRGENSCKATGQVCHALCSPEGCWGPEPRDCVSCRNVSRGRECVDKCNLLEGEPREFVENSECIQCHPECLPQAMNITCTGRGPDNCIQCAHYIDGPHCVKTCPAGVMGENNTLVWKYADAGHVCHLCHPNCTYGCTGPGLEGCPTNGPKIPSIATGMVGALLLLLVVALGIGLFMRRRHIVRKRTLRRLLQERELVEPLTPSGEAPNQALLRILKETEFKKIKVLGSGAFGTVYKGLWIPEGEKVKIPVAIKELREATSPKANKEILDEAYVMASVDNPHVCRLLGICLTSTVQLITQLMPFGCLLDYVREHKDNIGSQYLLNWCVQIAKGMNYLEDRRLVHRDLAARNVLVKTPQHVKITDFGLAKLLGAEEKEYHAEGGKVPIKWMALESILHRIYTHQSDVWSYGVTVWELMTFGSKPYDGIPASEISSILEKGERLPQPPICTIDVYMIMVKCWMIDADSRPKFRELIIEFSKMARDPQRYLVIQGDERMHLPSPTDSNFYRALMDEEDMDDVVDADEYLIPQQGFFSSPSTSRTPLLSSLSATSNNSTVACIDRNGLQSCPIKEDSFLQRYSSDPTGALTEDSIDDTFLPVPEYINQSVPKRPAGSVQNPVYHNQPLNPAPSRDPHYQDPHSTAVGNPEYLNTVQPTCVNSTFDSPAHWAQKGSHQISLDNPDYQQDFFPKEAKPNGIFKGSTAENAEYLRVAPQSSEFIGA

| IC50 [nM] | Structure (SMILES) |
| --- | --- |
| 2.9 | C=CC(=O)Nc1cc2c(Nc3ccc(F)c(Cl)c3)ncnc2cc1C#CC(C)(C)N1CCN(CCC#N)CC1 |
| 2.1 | CC(C)(C#Cc1cc2ncnc(Nc3ccc(F)c(Cl)c3)c2cc1NS(C)(=O)=O)N1CCN(S(C)(=O)=O)CC1 |
| 4.4 | C=CC(=O)Nc1cc2c(Nc3ccc(F)c(Cl)c3)ncnc2cc1C#CC(COCC)(COCC)N1CCN(C)CC1 |
| 2.1 | CC(C)(C#Cc1cc2ncnc(Nc3ccc(F)c(Cl)c3)c2cc1NS(C)(=O)=O)N1CCC(=O)CC1 |
| < 1 | C=CC(=O)Nc1cc2c(Nc3ccc(F)c(Cl)c3)ncnc2cc1/C=C/CCN1CCN(C)CC1 |
| 3.2 | C=CC(=O)Nc1cc2c(Nc3ccc(F)c(Cl)c3)ncnc2cc1C#CC(C)(C)N1CCCN(C)CC1 |
| > 10 | CCOCC(C#Cc1cc2c(Nc3ccc(F)c(Cl)c3)ncnc2cc1OCC)(COCC)N1CCN(C)CC1 |
| < 1 | C=CC(=O)Nc1cc2c(Nc3ccc(F)c(Cl)c3)ncnc2cc1C#CC(C)(C)N1CCN(C(C)=O)CC1 |
| 2.9 | CN(C)CCN(C)C(C)(C)C#Cc1cc2ncnc(Nc3ccc(F)c(Cl)c3)c2cc1NS(C)(=O)=O |
| 4.6 | C=CC(=O)Nc1cc2c(Nc3ccc(F)c(Cl)c3)ncnc2cc1C#CC(C)(C)N1CCC(OC)CC1 |
| 1.2 | CCOc1cc2ncnc(Nc3ccc(F)c(Cl)c3)c2cc1C#CCCN1CCN(C)CC1 |
| > 10 | COc1cc2ncnc(Nc3cccc(C(C)=O)c3)c2cc1C#CC(C)(C)N1CCN(C)CC1 |
| < 1 | CN1CCN(CC#Cc2cc3ncnc(Nc4ccc(F)c(Cl)c4)c3cc2NS(C)(=O)=O)CC1 |
| < 1 | CS(=O)(=O)Nc1cc2c(Nc3ccc(F)c(Cl)c3)ncnc2cc1C#CCCN1CCOCC1 |
| < 1 | C=CC(=O)Nc1cc2c(Nc3ccc(F)c(Cl)c3)ncnc2cc1C#CCN1CCOCC1 |
| 1.9 | C=CC(=O)Nc1cc2c(Nc3ccc(F)c(Cl)c3)ncnc2cc1C#CC(C)(C)N1CCN(S(C)(=O)=O)CC1 |
| 6.7 | COCCN(CCOC)C(C)(C)C#Cc1cc2ncnc(Nc3ccc(F)c(Cl)c3)c2cc1NS(C)(=O)=O |

Continued, molecule first:

| Structure (SMILES) | IC50 [nM] |
| --- | --- |
| C=CC(=O)Nc1cc2c(Nc3ccc(F)c(Cl)c3)ncnc2cc1C#CC(C)(C)N1CCN(CCOC)CC1 | 1.5 |
| CC(=O)N1CCN(C(C)(C)C#Cc2cc3ncnc(Nc4ccc(F)c(Cl)c4)c3cc2NS(C)(=O)=O)CC1 | 2.1 |
| C#Cc1cccc(Nc2ncnc3cc(OCC)c(C#CC(C)(C)N4CCN(C(C)=O)CC4)cc23)c1 | > 10 |
| C=CC(=O)Nc1cc2c(Nc3ccc(F)c(Cl)c3)ncnc2cc1C#CC(C)(C)N(C)CCOC | 3.7 |
| C=CC(=O)Nc1cc2c(Nc3ccc(F)c(Cl)c3)ncnc2cc1C#CC(C)(C)N(CC)CCC(=O)OC | 2.6 |
| C=CC(=O)Nc1cc2c(Nc3ccc(F)c(Cl)c3)ncnc2cc1C#CC(C)(C)N(CCOC)CCOC | 3.5 |
| C=CC(=O)Nc1cc2c(Nc3ccc(F)c(Cl)c3)ncnc2cc1C#CC(C)(C)N1CCC(O)CC1 | 1.9 |
| C=CC(=O)Nc1cc2c(Nc3ccc(F)c(Cl)c3)ncnc2cc1C#CC1(N2CCN(C)CC2)CCCCC1 | 2.4 |
| CCOCC(C#Cc1cc2ncnc(Nc3ccc(F)c(Cl)c3)c2cc1NS(C)(=O)=O)(COCC)N1CCN(C)CC1 | 10.3 |
| C#Cc1cccc(Nc2ncnc3cc(OCC)c(C#CC(C)(C)N(C)C4CCN(C)CC4)cc23)c1 | 3.2 |
| C=CC(=O)Nc1cc2c(Nc3ccc(F)c(Cl)c3)ncnc2cc1C#CC(C)(C)N1CCC(=O)CC1 | 1.8 |
| COC1CCN(C(C)(C)C#Cc2cc3ncnc(Nc4ccc(F)c(Cl)c4)c3cc2NS(C)(=O)=O)CC1 | 5.3 |
| C=CC(=O)Nc1cc2c(Nc3ccc(F)c(Cl)c3)ncnc2cc1C#CC(C)(C)N1CCN(CC)CC1 | 3.3 |
| C=CC(=O)Nc1cc2c(Nc3ccc(F)c(Cl)c3)ncnc2cc1C#CC(C)(C)N1CCCC1 | 2.6 |
| C=CC(=O)Nc1cc2c(Nc3ccc(F)c(Cl)c3)ncnc2cc1C#CCCN1CCOCC1 | < 1 |
| CN1CCCN(C(C)(C)C#Cc2cc3ncnc(Nc4ccc(F)c(Cl)c4)c3cc2NS(C)(=O)=O)CC1 | 1.9 |
| C=CC(=O)Nc1cc2c(Nc3ccc(F)c(Cl)c3)ncnc2cc1C#CC(C)(C)N1CCN(C)CC1 | 1.8 |
| C=CC(=O)Nc1cc2c(Nc3ccc(F)c(Cl)c3)ncnc2cc1C#CC(CC)(CC)N1CCN(C)CC1 | 2.1 |
| CN1CCN(CCC#Cc2cc3ncnc(Nc4ccc(F)c(Cl)c4)c3cc2NS(C)(=O)=O)CC1 | < 1 |
| C=CC(=O)Nc1cc2c(Nc3ccc(F)c(Cl)c3)ncnc2cc1C#CC(C)(C)N(C)CCN(C)C | 2.4 |
| COCCN(C)C(C)(C)C#Cc1cc2ncnc(Nc3ccc(F)c(Cl)c3)c2cc1NS(C)(=O)=O | 3.1 |
| C=CC(=O)Nc1cc2c(Nc3ccc(F)c(Cl)c3)ncnc2cc1C#CCN1CCN(C)CC1 | < 1 |
| CCOc1cc2ncnc(Nc3ccc(F)c(Cl)c3)c2cc1C#CC(C)(C)N(C)C1CCN(C)CC1 | 3.8 |
